Consider 1 compound from patent US20060020042A1, “Memantine for the treatment of mild and mild to moderate Alzheimer's disease” (Forest Laboratories, Inc., priority 2004, published 2006).

For test [1], the system named is outpatients with mild-to-moderate Alzheimer's disease. Put plainly: NPI in randomized, double-blind, placebo-controlled study. In kind it is in vivo, human. The settings on record: for NPI total Difference (memantine minus placebo, LS mean): Week 24, ITT, 20 mg/day. As for the experimental part: In the study of the present invention, there were approximately 400 patients enrolled across 42 centers. Evaluation of primary efficacy was achieved by Alzheimer's Disease Assessment Scale-cognitive subscale (ADAS-cog) and the Clinician's Interview-Based Impression of Change including caregiver information (CIBIC-plus). Secondary efficacy was determined using Alzheimer's disease Cooperative Study-Activities of Daily Living (ADCS-ADL) and Neuropsychiatric Inventory (NPI) criteria. The NPI is a validated scale that assesses behavioral disturbances in patients with dementia (Cummings et al., Neurology. 1994; 44(12):2308-14). It provides both a total score (sum of 12 domain scores) as well as scores for each subscales (e.g., delusions, hallucinations, agitation/aggression, depression/dysphoria, anxiety, disinhibition, elation/euphoria, apathy/indifference, irritability/lability, aberrant motor activity). For each subscale, both the frequency and the severity of each behavior is measured. The NPI total score ranges from 0 (higher functioning status) to 144 (lower functioning status). The NPI is based upon responses from the caregiver. The NPI was administered at Baseline and the end of Weeks 12 and 24 (or upon early termination). The study consisted of 1-2 weeks of single-blind placebo treatment followed by 24 weeks of double-blind treatment. Results were evaluated over seven clinical visits; at initial screening, baseline, and the end of weeks 4, 8, 12, 18 and 24. This study was conducted as a fixed-dose study. All patients assigned to the memantine group received an initial dose of 5 mg per day; the dose was titrated in 5 mg weekly increments to a final dose of 20 mg/day (administered as two 5 mg tablets twice a day). Study drug was provided as blister packs containing masked study medication such that placebo and memantine tablets were visually identical, and all patients received four tablets of study medication daily (in combinations of memantine 5 mg tablets and matching placebo tablets). […] Descriptive statistics were calculated by visit. […]

For test [2], the system named is brain glucose metabolism in mild-to-moderate AD subjects. As to the kind of experiment: FDG PET regional brain glucose metabolism. The settings on record: 24 weeks of 20 mg/day. The test is classed as in vivo, human. As to the method:
Drug treatment. As stated above, patients were randomized to receive 20 mg/day (10 b.i.d.) memantine or placebo for 24 weeks. PET scans were performed for 10 (5 receiving memantine and 5 receiving placebo) patients at baseline and at the end of week 24.
PET Scan Acquisition. Subjects were PET scanned at the University of California, Irvine Brain Imaging Center using a GE 2048-15B dedicated head scanner. Thirty slices at 6.5-mm intervals (15 in each of two sets) were obtained so as to cover the entire brain. Attenuation correction was performed by obtaining a transmission scan using a ^68Ge pin source. A thermosetting plastic facemask was used to hold the subject stationary during the 60 minutes of total image acquisition. Scans were reconstructed with a blank and a transmission scan. PET image count was used for study analyses and adjusted for intrasubject global differences using normalization (proportional scaling).
PET Image Methodology and Analysis. Differences in regional FDG uptake were analyzed using SPM99 software (Wellcome Department of Cognitive Neurology, London, UK), implemented on the Matlab platform (MathWorks Inc., Sherborn, Mass.). Statistical parametric maps (SPMs) are spatially extended statistical processes that are constructed to test hypotheses about regionally specific effects in neuroimaging data. […]

Test [3] deals with mild-to-moderate AD subjects. Put plainly: Snodgrass picture naming activation task during PET. The test is classed as in vivo, human. As for the experimental part:
Snodgrass Picture Naming Task. […] In the present invention, all patients who were subjected to PET scanning were evaluated during imaging using the Snodgrass picture naming activation task, The use of a task during the FDG uptake was used to image increases in the hippocampus and temporal lobe. This Snodgrass Picture Naming activation task was sensitive to object naming, which is impaired in mild to moderate AD. The Snodgrass picture naming activation task and performance analysis was based, in part, on the speed of identification and articulation of the name that corresponds to a set of 260 pictures (Snodgrass and Vanderwart, J. Experimental Psychology: Human Learning and Memory 1980; 6(2): 174-215). The pictures are black-and-white line drawings executed according to a set of rules that provide consistency of pictorial representation. The pictures were standardized on four variables of central relevance to memory and cognitive processing: […]

A further test deals with NMDA receptor. The settings on record: uncompetitive antagonist; cited from earlier work.

Turning to `CC12CC3CC(C)(C1)CC(N)(C3)C2` [Memantine, 1-amino-3,5-dimethyladamantane], the “individual NPI criteria significantly better than in the placebo-treated group” value in test [1] (LOCF, week 24) is recorded as “three”. The “NPI total Difference (memantine minus placebo, LS mean)” value in test [1] (LOCF analysis, p=0.011) was −3.5; in test [1] (OC analysis, p=0.143), −2.1. Moreover, the “regional brain glucose metabolic activity (FDG PET) compared to baseline” value in test [2] (5 patients, CNS incl. cerebral cortex, cerebellum, brainstem, p<0.025) is reported as “metabolic increases”. The “regional brain glucose metabolism (FDG PET) compared to baseline” value in test [2] (isolated region of left visual cortex and left putamen) was “decreases in glucose metabolism”. Also, in test [3] (memantine vs placebo), the “difference in Snodgrass performance between the two treatment groups” value was “no significant difference”. Besides, the “Snodgrass picture naming activation task performance” value in test [3] (memantine-treated subjects during PET) is “better than chance”. In addition, in the test with NMDA receptor, the “affinity for the NMDA receptor” value is “moderate affinity”.
